IC50 data for one compound are collected here from ChEMBL document CHEMBL2346648, “A series of thiazole derivatives bearing thiazolidin-4-one as non-competitive ADAMTS-5 (aggrecanase-2) inhibitors” (Bioorg Med Chem Lett, 2013).

The structures appear in SMILES notation.

Assay [1] concerns the target Disintegrin and metalloproteinase domain-containing protein 17 (Homo sapiens, UniProt P78536). In words: Inhibition of TACE (unknown origin).
The target in assay [2] is T1, A disintegrin and metalloproteinase with thrombospondin motifs 13 (Homo sapiens, UniProt Q76LX8).
T1 sequence (Q76LX8 whole entry): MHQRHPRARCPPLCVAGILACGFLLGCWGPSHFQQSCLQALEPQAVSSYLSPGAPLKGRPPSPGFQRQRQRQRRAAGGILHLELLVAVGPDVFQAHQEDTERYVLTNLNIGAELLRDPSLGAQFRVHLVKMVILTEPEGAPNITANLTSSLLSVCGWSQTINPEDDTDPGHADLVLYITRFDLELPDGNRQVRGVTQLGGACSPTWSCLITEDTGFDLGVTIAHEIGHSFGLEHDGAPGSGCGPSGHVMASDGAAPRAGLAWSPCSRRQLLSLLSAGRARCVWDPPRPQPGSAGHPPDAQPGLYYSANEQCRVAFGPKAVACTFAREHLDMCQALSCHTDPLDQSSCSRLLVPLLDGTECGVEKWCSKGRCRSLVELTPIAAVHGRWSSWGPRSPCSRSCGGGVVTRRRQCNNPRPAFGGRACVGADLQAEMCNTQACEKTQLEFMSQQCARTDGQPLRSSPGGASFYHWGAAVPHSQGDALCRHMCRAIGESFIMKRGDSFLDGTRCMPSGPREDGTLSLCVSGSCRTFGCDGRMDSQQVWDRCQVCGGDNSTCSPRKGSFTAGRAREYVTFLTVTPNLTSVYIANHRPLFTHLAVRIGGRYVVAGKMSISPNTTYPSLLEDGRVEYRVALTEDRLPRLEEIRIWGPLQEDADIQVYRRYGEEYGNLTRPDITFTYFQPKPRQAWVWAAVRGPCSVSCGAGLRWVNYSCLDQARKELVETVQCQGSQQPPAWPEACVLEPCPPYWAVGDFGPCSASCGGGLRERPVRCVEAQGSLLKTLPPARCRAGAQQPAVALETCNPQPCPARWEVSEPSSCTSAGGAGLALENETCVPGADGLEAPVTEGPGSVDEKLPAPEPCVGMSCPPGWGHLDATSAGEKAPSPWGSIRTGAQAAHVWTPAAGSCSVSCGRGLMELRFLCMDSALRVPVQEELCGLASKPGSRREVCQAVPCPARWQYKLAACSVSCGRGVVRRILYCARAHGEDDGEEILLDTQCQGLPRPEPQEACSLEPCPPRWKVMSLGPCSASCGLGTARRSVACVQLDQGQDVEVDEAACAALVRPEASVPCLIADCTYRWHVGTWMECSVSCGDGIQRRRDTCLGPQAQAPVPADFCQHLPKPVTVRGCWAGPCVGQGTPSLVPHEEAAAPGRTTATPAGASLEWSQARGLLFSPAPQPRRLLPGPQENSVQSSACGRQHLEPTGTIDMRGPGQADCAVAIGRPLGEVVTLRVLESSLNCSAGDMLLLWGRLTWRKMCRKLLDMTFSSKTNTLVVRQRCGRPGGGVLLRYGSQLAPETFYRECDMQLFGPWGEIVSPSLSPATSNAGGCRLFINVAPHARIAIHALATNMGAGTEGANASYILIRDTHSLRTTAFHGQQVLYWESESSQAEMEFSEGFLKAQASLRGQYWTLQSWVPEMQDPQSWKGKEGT
In words: Inhibition of ADAMTS-13 (unknown origin).

Assay [3] concerns the target T2, A disintegrin and metalloproteinase with thrombospondin motifs 5 (Bos taurus, UniProt Q9TT92).
T2 sequence (Q9TT92 whole entry): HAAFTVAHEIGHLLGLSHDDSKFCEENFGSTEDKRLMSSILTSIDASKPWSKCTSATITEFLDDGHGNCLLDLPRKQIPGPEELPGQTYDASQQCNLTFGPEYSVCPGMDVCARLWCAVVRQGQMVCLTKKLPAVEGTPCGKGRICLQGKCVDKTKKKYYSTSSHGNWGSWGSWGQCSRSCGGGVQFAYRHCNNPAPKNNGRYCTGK
The assay can be described thus: Ex vivo inhibition of ADAMTS-5-mediated aggrecan degradation in IL-1-stimulated bovine cartilage explant.

Chain of Disintegrin and metalloproteinase domain-containing protein 17 (P78536 whole entry, the tested form may be a part): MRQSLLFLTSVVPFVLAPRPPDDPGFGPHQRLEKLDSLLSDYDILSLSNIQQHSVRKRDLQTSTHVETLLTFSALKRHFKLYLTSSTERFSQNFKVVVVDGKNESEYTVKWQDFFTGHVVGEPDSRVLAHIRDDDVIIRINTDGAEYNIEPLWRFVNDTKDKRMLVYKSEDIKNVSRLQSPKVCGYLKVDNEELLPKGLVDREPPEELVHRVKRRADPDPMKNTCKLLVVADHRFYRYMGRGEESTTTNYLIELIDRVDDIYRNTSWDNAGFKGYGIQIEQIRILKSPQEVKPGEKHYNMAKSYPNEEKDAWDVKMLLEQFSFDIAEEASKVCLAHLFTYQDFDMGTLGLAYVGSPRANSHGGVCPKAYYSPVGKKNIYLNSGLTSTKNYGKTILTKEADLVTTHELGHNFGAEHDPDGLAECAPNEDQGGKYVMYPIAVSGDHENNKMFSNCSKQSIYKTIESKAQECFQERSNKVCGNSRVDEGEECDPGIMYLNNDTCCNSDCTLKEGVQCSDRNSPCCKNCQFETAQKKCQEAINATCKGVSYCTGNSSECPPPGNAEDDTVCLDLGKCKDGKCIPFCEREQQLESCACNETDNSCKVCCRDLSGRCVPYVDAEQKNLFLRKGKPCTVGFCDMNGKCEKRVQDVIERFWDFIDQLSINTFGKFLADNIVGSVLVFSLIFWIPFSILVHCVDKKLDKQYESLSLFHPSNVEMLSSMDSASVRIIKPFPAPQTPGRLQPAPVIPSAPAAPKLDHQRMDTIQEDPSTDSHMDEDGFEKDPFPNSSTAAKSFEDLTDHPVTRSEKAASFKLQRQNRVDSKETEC

As for `O=C(O)CCc1sc(/C=C2\NC(=O)CS2)nc1-c1ccccn1`, the IC50 is more than 30 µM in assay [1], 20 µM in assay [2] and 22 µM in assay [3].
